Data on 21 molecules can be found in patent publication US12545680B2, “Substituted oxaspiro[4.5]decanes as mor receptor agonists” (SHANGHAI HAIYAN PHARMACEUTICAL TECHNOLOGY CO., LTD., priority 2020, dated 2026).

Assay [1] concerns the target T1, MOR receptor (OPRM1) (Homo sapiens, UniProt P35372). Nature of the assay: HTRF-cAMP cell experiment. The settings on record: for cAMP Emax (%) Morphine was 100% / EC50: PathHunter CHO-K1 OPRM1 β-Arrestin cell line; for cAMP Emax (%) Morphine was 100% / Emax: maximum effect relative to morphine = 100%; for EC50: NKH477-stimulated cAMP, HTRF; for Emax: read-out: cAMP Emax (%) Morphine was 100%, PathHunter CHO-K1 OPRM1 β-Arrestin cell line. On the technique in general: TR-FRET usually uses a lanthanide donor and a delayed reading to cut background.

In assay [2] the target is T1, MOR receptor (OPRM1). Nature of the assay: β-Arrestin cell experiment. The settings on record: maximum effect relative to morphine = 100%; for β-arrestin Emax (%) Morphine was 100%: PathHunter CHO-K1 OPRM1 β-Arrestin cell line; for Emax: read-out: β-arrestin Emax (%) Morphine was 100%, PathHunter CHO-K1 OPRM1 β-Arrestin cell line.

Usually EC50 stands for the concentration giving half of the maximal effect. A word on the Emax: it is the maximal effect, on the per cent scale that the assay sets.

Read-outs that look alike come from different tables or passages of the source.

T1 sequence (P35372 whole entry): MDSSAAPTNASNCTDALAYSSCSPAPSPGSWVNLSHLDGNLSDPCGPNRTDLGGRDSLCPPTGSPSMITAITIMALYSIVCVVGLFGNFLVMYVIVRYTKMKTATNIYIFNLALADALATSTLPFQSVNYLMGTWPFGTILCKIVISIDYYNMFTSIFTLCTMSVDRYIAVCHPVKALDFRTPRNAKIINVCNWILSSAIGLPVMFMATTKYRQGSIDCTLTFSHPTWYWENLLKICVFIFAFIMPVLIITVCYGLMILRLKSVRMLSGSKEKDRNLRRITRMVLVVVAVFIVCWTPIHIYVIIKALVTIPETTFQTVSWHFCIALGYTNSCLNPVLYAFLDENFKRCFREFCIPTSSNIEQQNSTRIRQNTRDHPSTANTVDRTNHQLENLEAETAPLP

With `CCC1CC(NCC[C@@]2(c3ccccn3)CCOC3(CCCC3)C2)c2ccnn21` (mixture of isomers) [Compound H-4-1, 6-ethyl-N-(2-((R)-9-(pyridin-2-yl)-6-oxaspiro[4.5]decan-9-yl)ethyl)-5,6-dihydro-4H-pyrrolo[1,2-b]pyrazol-4-amine], the “cAMP Emax (%) Morphine was 100%” value on MOR receptor (OPRM1) [1] is 64.1%. Further, at MOR receptor (OPRM1) [1] (cAMP EC50 (nM)), the EC50 worked out at 8 nM. For the same molecule, on MOR receptor (OPRM1) [2], the “β-arrestin Emax (%) Morphine was 100%” value was 1.8%.

Regarding `CCC1CC(NCC[C@@]2(c3ccccn3)CCOC3(CCCC3)C2)c2ccnn21` (mixture of isomers) [Compound H-4-2, 6-ethyl-N-(2-((R)-9-(pyridin-2-yl)-6-oxaspiro[4.5]decan-9-yl)ethyl)-5,6-dihydro-4H-pyrrolo[1,2-b]pyrazol-4-amine], the “cAMP Emax (%) Morphine was 100%” value on MOR receptor (OPRM1) [1] stood at 91.8%. Further, the EC50 on MOR receptor (OPRM1) [1] (cAMP EC50 (nM)) stood at 18 nM. The “β-arrestin Emax (%) Morphine was 100%” value at MOR receptor (OPRM1) [2] worked out at 4.8%.

With `CC1CC(NCC[C@@]2(c3ccccn3)CCOC3(CCCC3)C2)c2ccnn21` (mixture of isomers) [Compound H-12-1, 6-methyl-N-(2-((R)-9-(pyridin-2-yl)-6-oxaspiro[4.5]decan-9-yl)ethyl)-5,6-dihydro-4H-pyrrolo[1,2-b]pyrazol-4-amine], the “cAMP Emax (%) Morphine was 100%” value at MOR receptor (OPRM1) [1] is 99.5%. On MOR receptor (OPRM1) [1] (cAMP EC50 (nM)), this molecule showed an EC50 of 12 nM. The Emax on MOR receptor (OPRM1) [2] worked out at 12%.

On to `CC1CC(NCC[C@@]2(c3ccccn3)CCOC3(CCCC3)C2)c2ccnn21` (mixture of isomers) [Compound H-12-2, 6-methyl-N-(2-((R)-9-(pyridin-2-yl)-6-oxaspiro[4.5]decan-9-yl)ethyl)-5,6-dihydro-4H-pyrrolo[1,2-b]pyrazol-4-amine], for which the “cAMP Emax (%) Morphine was 100%” value at MOR receptor (OPRM1) [1] stood at 77.8%. Also, at MOR receptor (OPRM1) [1] (read-out: cAMP EC50), the EC50 is 12 nM. Besides, the “β-arrestin Emax (%) Morphine was 100%” value on MOR receptor (OPRM1) [2] is reported as 15.7%.

With `c1ccc([C@]2(CCNC3CCn4nccc43)CCOC3(CCCC3)C2)nc1` (stereo partly drawn) [Compound H-1, N-(2-((R)-9-(pyridin-2-yl)-6-oxaspiro[4.5]decan-9-yl)ethyl)-5,6-dihydro-4H-pyrrolo[1,2-b]pyrazol-4-amine], a half-maximal effect on MOR receptor (OPRM1) [1] (cAMP EC50 (nM)) (EC50) was put at 49 nM. Also, the Emax turned out to be 125% at MOR receptor (OPRM1) [1] and 29.7% on MOR receptor (OPRM1) [2].

`COC(C)(C)C1CC(NCC[C@@]2(c3ccccn3)CCOC3(CCCC3)C2)c2ccnn21` (stereo partly drawn) [Compound H-2, 6-(2-methoxypropan-2-yl)-N-(2-((R)-9-(pyridin-2-yl)-6-oxaspiro[4.5]decan-9-yl)ethyl)-5,6-dihydro-4H-pyrrolo[1,2-b]pyrazol-4-amine] showed an EC50 on MOR receptor (OPRM1) [1] (cAMP EC50 (nM)) of 47 nM. Further, the Emax at MOR receptor (OPRM1) [1] was 93.2%; on MOR receptor (OPRM1) [2], 6.2%.

As for `c1ccc([C@]2(CCNC3CC(C4CC4)n4nccc43)CCOC3(CCCC3)C2)nc1` (stereo partly drawn) [Compound H-3, 6-cyclopropyl-N-(2-((R)-9-(pyridin-2-yl)-6-oxaspiro[4.5]decan-9-yl)ethyl)-5,6-dihydro-4H-pyrrolo[1,2-b]pyrazol-4-amine], at MOR receptor (OPRM1) [1] (cAMP EC50 (nM)), it took 17 nM to reach a half-maximal effect (EC50). Besides, the Emax on MOR receptor (OPRM1) [1] came out at 74.6%; at MOR receptor (OPRM1) [2], 4.9%.

With `c1ccc([C@]2(CCNC3CC(C4CCCC4)n4nccc43)CCOC3(CCCC3)C2)nc1` (stereo partly drawn) [Compound H-5, 6-cyclopentyl-N-(2-((R)-9-(pyridin-2-yl)-6-oxaspiro[4.5]decan-9-yl)ethyl)-5,6-dihydro-4H-pyrrolo[1,2-b]pyrazol-4-amine], the Emax at MOR receptor (OPRM1) [2] was 4.8%.

The molecule `CC(C)(C)C1CC(NCC[C@@]2(c3ccccn3)CCOC3(CCCC3)C2)c2ccnn21` (stereo partly drawn) [Compound H-6, 6-tert-butyl-N-(2-((R)-9-(pyridin-2-yl)-6-oxaspiro[4.5]decan-9-yl)ethyl)-5,6-dihydro-4H-pyrrolo[1,2-b]pyrazol-4-amine] had an EC50 on MOR receptor (OPRM1) [1] (cAMP EC50 (nM)) of 9 nM. Further, the Emax worked out at 99.6% on MOR receptor (OPRM1) [1] and 15.3% on MOR receptor (OPRM1) [2].

`CC(C)(F)C1CC(NCC[C@@]2(c3ccccn3)CCOC3(CCCC3)C2)c2ccnn21` (stereo partly drawn) [Compound H-7, 6-(2-fluoropropan-2-yl)-N-(2-((R)-9-(pyridin-2-yl)-6-oxaspiro[4.5]decan-9-yl)ethyl)-5,6-dihydro-4H-pyrrolo[1,2-b]pyrazol-4-amine]: it took 29 nM to reach a half-maximal effect at MOR receptor (OPRM1) [1] (cAMP EC50 (nM)) (EC50). Besides, the Emax on MOR receptor (OPRM1) [1] is 105%; at MOR receptor (OPRM1) [2], 22.1%.

With `CC(C)C1CC(NCC[C@@]2(c3ccccn3)CCOC3(CCCC3)C2)c2c(F)cnn21` (stereo partly drawn) [Compound H-9, 3-fluoro-6-isopropyl-N-(2-((R)-9-(pyridin-2-yl)-6-oxaspiro[4.5]decan-9-yl)ethyl)-5,6-dihydro-4H-pyrrolo[1,2-b]pyrazol-4-amine], the Emax on MOR receptor (OPRM1) [2] turned out to be 1%.

Regarding `CC1(C2CC(NCC[C@@]3(c4ccccn4)CCOC4(CCCC4)C3)c3ccnn32)CC1` (stereo partly drawn) [Compound H-10, 6-(1-methylcyclopropyl)-N-(2-((R)-9-(pyridin-2-yl)-6-oxaspiro[4.5]decan-9-yl)ethyl)-5,6-dihydro-4H-pyrrolo[1,2-b]pyrazol-4-amine], at MOR receptor (OPRM1) [1] (cAMP EC50 (nM)), the EC50 is 11 nM. In addition, the results for the Emax at MOR receptor (OPRM1) [1] and at MOR receptor (OPRM1) [2] were 74.7% and 5.1%, respectively.

In turn, `CC(C)C1CC(NCC[C@@]2(c3ccccn3)CCOC3(CCCC3)C2)c2ccnn21` (stereo partly drawn) [Compound H-11, 6-(isopropyl)-N-(2-((R)-9-(pyridin-2-yl)-6-oxaspiro[4.5]decan-9-yl)ethyl)-5,6-dihydro-4H-pyrrolo[1,2-b]pyrazol-4-amine] registered an EC50 on MOR receptor (OPRM1) [1] (cAMP EC50 (nM)) of 15 nM. For the same molecule, the Emax at MOR receptor (OPRM1) [1] amounted to 84.8%; on MOR receptor (OPRM1) [2], 4.3%.

In the case of `CCCC1CC(NCC[C@@]2(c3ccccn3)CCOC3(CCCC3)C2)c2ccnn21` (stereo partly drawn) [Compound H-14, 6-propyl-N-(2-((R)-9-(pyridin-2-yl)-6-oxaspiro[4.5]decan-9-yl)ethyl)-5,6-dihydro-4H-pyrrolo[1,2-b]pyrazol-4-amine], the EC50 on MOR receptor (OPRM1) [1] (cAMP EC50 (nM)) came out at 31 nM. For the same molecule, the figures for the Emax on MOR receptor (OPRM1) [1] and at MOR receptor (OPRM1) [2] were 73% and 7.2%, respectively.

As for `CCC(C)C1CC(NCC[C@@]2(c3ccccn3)CCOC3(CCCC3)C2)c2ccnn21` (stereo partly drawn) [Compound H-15, 6-(sec-butyl)-N-(2-((R)-9-(pyridin-2-yl)-6-oxaspiro[4.5]decan-9-yl)ethyl)-5,6-dihydro-4H-pyrrolo[1,2-b]pyrazol-4-amine], a half-maximal response at MOR receptor (OPRM1) [1] (cAMP EC50 (nM)) (EC50) required 84 nM. For the same molecule, the Emax on MOR receptor (OPRM1) [1] came out at 64.9%.

With `FC(F)(F)C1(C2CC(NCC[C@@]3(c4ccccn4)CCOC4(CCCC4)C3)c3ccnn32)CC1` (stereo partly drawn) [Compound H-17, N-(2-((R)-9-(pyridin-2-yl)-6-oxaspiro[4.5]decan-9-yl)ethyl)-6-(1-(trifluoromethyl)cyclopropyl)-5,6-dihydro-4H-pyrrolo[1,2-b]pyrazol-4-amine], the EC50 on MOR receptor (OPRM1) [1] (cAMP EC50 (nM)) stood at 31 nM. Moreover, the Emax on MOR receptor (OPRM1) [1] was 68.6%; on MOR receptor (OPRM1) [2] it was 2.6%.

For the molecule `CC(C)(C1CC(NCC[C@@]2(c3ccccn3)CCOC3(CCCC3)C2)c2ccnn21)C(F)(F)F` (stereo partly drawn) [Compound H-18, N-(2-((R)-9-(pyridin-2-yl)-6-oxaspiro[4.5]decan-9-yl)ethyl)-6-(1,1,1,-trifluoro-2-methylprop-2-yl)-5,6-dihydro-4H-pyrrolo[1,2-b]pyrazol-4-amine], at MOR receptor (OPRM1) [1], the “cAMP Emax (%) Morphine was 100%” value was 89.1%. Moreover, the EC50 on MOR receptor (OPRM1) [1] (read-out: cAMP EC50) amounted to 68 nM.

On MOR receptor (OPRM1) [1] (cAMP EC50 (nM)), `c1ccc([C@]2(CCNC3CC4(CCCC4)n4nccc43)CCOC3(CCCC3)C2)nc1` (stereo partly drawn) [Compound H-19, N-(2-((R)-9-(pyridin-2-yl)-6-oxaspiro[4.5]decan-9-yl)ethyl)-4′,5′-dihydrospiro[cyclopentane-1,6′-pyrrolo[1,2-b]pyrazol]-4′-amine] had an EC50 of 21 nM. For the same molecule, the values for the Emax at MOR receptor (OPRM1) [1] and on MOR receptor (OPRM1) [2] were 94.1% and 17.3%, respectively.

Molecule `c1ccc([C@]2(CCNC3CC4(CCOCC4)n4nccc43)CCOC3(CCCC3)C2)nc1` (stereo partly drawn) [Compound H-20, N-(2-((R)-9-(pyridin-2-yl)-6-oxaspiro[4.5]decan-9-yl)ethyl)-2,3,4′,5,5′,6-hexahydrospiro[pyran-4,6′-pyrrolo[1,2-b]pyrazol]-4′-amine] showed a concentration giving a half-maximal response (EC50) at MOR receptor (OPRM1) [1] (cAMP EC50 (nM)) of 4 nM. In addition, on MOR receptor (OPRM1) [1], the Emax was 107%.

The molecule `c1ccc([C@]2(CCNC3CC4(CCC4)n4nccc43)CCOC3(CCCC3)C2)nc1` (stereo partly drawn) [Compound H-21, N-(2-((R)-9-(pyridin-2-yl)-6-oxaspiro[4.5]decan-9-yl)ethyl)-4′,5′-dihydrospiro[cyclobutane-1,6′-pyrrolo[1,2-b]pyrazol]-4′-amine] gave a 50% effective concentration (EC50) at MOR receptor (OPRM1) [1] (cAMP EC50 (nM)) of 22 nM. In addition, the Emax came to 70.8% at MOR receptor (OPRM1) [1] and 8% on MOR receptor (OPRM1) [2].

Turning to `CC1(C)CC(NCC[C@@]2(c3ccccn3)CCOC3(CCCC3)C2)c2ccnn21` (stereo partly drawn) [Compound H-22, 6,6-dimethyl-N-(2-((R)-9-(pyridin-2-yl)-6-oxaspiro[4.5]decan-9-yl)ethyl)-5,6-dihydro-4H-pyrrolo[1,2-b]pyrazol-4-amine], the response at MOR receptor (OPRM1) [1] (cAMP EC50 (nM)) was half-maximal at 11 nM (EC50). Besides, the Emax amounted to 104% at MOR receptor (OPRM1) [1] and 39.9% at MOR receptor (OPRM1) [2].
